Earlier results, collected in article PMC3902791 (Molecular imaging and biology : MIB : the official …, 2012).
Like-named read-outs stand apart in the source and are kept apart here.

Experiments:
dog = conditions: cited from earlier work
monkey = conditions: intravenous injection; cited from earlier work
[1] = humans; cited from earlier work

## O=C([O-])CF.[Na+] [sodium fluoroacetate]
dog; intravenously
  LD50: 0.06 mg/kg
dog; orally
  LD50: 0.066 mg/kg
monkey
  LD50: 5 mg/kg

## C[11C](=O)O [^11C-ACE, ^11C-labeled acetate]
[1]
  effective dose: 0.0049 mSv/MBq
  radiation absorbed dose, intestines: 0.01–0.011 mGy/MBq
  radiation absorbed dose, kidneys: 0.0093 mGy/MBq
  radiation absorbed dose, liver: 0.006 mGy/MBq
  radiation absorbed dose, pancreas: 0.017 mGy/MBq
  radiation absorbed dose, urinary bladder: 0.0028 mGy/MBq
